Patent US9309263B2, “Fused multi-cyclic sulfone compounds as inhibitors of beta-secretase and methods of use thereof” (AMGEN INC., priority 2013, dated 2016)
pIC50: −log10 of the molar value. Read-outs that look alike come from different tables or passages of the source.

Legend:
Cathepsin D (Cat D) = Cathepsin D (Cat D) (Homo sapiens, UniProt P07339); test: In vitro enzymatic Cathepsin D (Cat D) FRET assay; format: biochemical
Summary of the method: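 Recombinant CHO-expressed enzyme (9 nM) pre-incubated 1 h with serially diluted inhibitor in 0.05 M citrate pH 3.5, 10% DMSO final, 5 mM CHAPS. Reaction started with 20 nM FRET peptide substrate, run 1 h, stopped with Tris to neutral pH; fluorescence read at ex 500/em 580 nm.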

[1] = tested on: Aβ 40 in conditioned medium of cells stably expressing Amyloid Precursor Protein (APP); test: In vitro BACE cell-based assay (Aβ 40 sandwich ELISA); details: HEK cell, average IC50
Summary of the method: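 APP-expressing cells, 24 h pre-culture in DMEM/10% FBS, treated 24 h with 10-point compound dilutions from 100 or 10 μM top, 0.1% DMSO final. Secreted Aβ40 quantified by sandwich ELISA (pAb40 capture, biotinylated 6E10 detection, europium TRF); IC50 from percent inhibition versus concentration.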

[2] = target: Beta Secretase enzyme (BACE) (Homo sapiens, UniProt P56817); test: In vitro enzymatic BACE FRET assay; format: biochemical; details: average IC50; read-out: BACE1 FRET assay IC50
Beta Secretase enzyme (BACE), sequence (P56817 46-501): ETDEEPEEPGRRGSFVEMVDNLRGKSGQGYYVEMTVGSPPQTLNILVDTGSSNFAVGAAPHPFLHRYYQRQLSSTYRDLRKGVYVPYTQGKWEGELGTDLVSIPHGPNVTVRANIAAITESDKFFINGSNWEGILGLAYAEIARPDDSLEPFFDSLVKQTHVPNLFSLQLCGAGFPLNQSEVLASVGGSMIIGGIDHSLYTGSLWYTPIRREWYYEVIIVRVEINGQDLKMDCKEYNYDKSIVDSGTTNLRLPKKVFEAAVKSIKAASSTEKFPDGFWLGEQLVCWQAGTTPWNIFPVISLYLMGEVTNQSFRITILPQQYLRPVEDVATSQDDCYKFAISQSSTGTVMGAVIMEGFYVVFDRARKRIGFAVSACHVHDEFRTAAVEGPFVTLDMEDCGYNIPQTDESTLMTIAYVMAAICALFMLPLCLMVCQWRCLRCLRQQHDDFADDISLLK
Summary of the method: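 Enzyme (0.2 nM) pre-incubated 1 h with serially diluted inhibitors in 0.05 M acetate pH 4.2, 10% DMSO, 100 uM genapol. Reaction started with 50 nM fluorophore/quencher peptide FRET substrate, run 1 h, stopped with Tris to neutral pH. Fluorescence read at excitation 488 nm, […].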

[3] = text summary referring to data in Table 2

Cathepsin D (Cat D), sequence (P07339 65-412, species assumed): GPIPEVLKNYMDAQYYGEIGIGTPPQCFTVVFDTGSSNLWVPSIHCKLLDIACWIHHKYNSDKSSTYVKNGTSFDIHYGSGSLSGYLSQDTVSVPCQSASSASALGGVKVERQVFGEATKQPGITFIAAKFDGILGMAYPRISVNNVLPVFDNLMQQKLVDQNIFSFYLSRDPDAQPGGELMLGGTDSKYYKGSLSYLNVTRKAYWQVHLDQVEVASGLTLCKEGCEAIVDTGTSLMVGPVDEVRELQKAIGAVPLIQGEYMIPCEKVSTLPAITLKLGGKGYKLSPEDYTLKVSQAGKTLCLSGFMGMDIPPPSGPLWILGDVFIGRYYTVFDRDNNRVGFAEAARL

| Compound | pIC50 (Cathepsin D (Cat D); read-out: CatD IC50) | pIC50 ([1]; Homo sapiens, HEK293) | pIC50 [2] | pIC50 (Cathepsin D (Cat D); [3]) | pIC50 [1] |
| --- | --- | --- | --- | --- | --- |
| Cc1cc(C#N)cnc1C(=O)Nc1ccc2c(c1)[C@@]1(C)N=C(N)C(C)(C)S(=O)(=O)[C@@H]1C[C@H](C)O2 [Example 57, N-((4aR,6S,11bR)-2-amino-3,3,6,11b-tetramethyl-4,4-dioxido-4a,5,6,11b-tetrahydro-3H-[1]benzoxepino[4,5-b][1,4]thiazin-10-yl)-5-cyano-3-methyl-2-pyridinecarboxamide] | 2.84 | 9.15 | 8.70 | < 2.92 | – |
| Cc1cc(Cl)cnc1C(=O)Nc1cnc2c(c1)[C@@]1(C)N=C(N)C3(CCC3)S(=O)(=O)[C@H]1CCO2 [Example 58, N-((4a′S,11b′R)-2′-amino-11b′-methyl-4′,4′-dioxido-4a′,5′,6′,11b′-tetrahydrospiro[cyclobutane-1,3′-pyrido[3′,2′:6,7]oxepino[4,5-b][1,4]thiazin]-10′-yl)-5-chloro-3-methyl-2-pyridinecarboxamide] | 3.18 | 7.96 | 7.85 | – | – |
| C[C@]12N=C(N)C3(CCC3)S(=O)(=O)[C@@H]1CCOc1ncc(Nc3nccc4cc(Cl)cnc34)cc12 [Example 61] | 3.17 | 6.90 | 7.74 | – | – |
| Cc1cc(C#N)cnc1C(=O)Nc1cnc2c(c1)[C@@]1(C)N=C(N)C3(CCC3)S(=O)(=O)[C@@H]1CCO2 [Example 62, N-((4a′R,11b′R)-2′-amino-11b′-methyl-4′,4′-dioxido-4a′,5′,6′,11b′-tetrahydrospiro[cyclobutane-1,3′-pyrido[3′,2′:6,7]oxepino[4,5-b][1,4]thiazin]-10′-yl)-5-cyano-3-methyl-2-pyridinecarboxamide] | < 3.40 | 7.22 | 7.82 | – | – |
| C[C@]12N=C(N)C3(CCC3)S(=O)(=O)[C@@H]1CCOc1ncc(NC(=O)c3ccc(C#N)cn3)cc12 [Example 63, N-((4a′R,11b′R)-2′-amino-1113′-methyl-4′,4′-dioxido-4a′,5′,6′,11b′-tetrahydrospiro[cyclobutane-1,3′-pyrido[3′,2′:6,7]oxepino[4,5-b][1,4]thiazin]-10′-yl)-5-cyano-2-pyridinecarboxamide] | 3.06 | 6.79 | 7.44 | < 3.10 | – |
| Cc1cc(Cl)cnc1C(=O)Nc1ccc2c(c1)[C@@]1(C)N=C(N)C(C)(C)S(=O)(=O)[C@]1(F)CCO2 [Example 65, N-((4aR,11bR)-2-amino-4a-fluoro-3,3,11b-trimethyl-4,4-dioxido-4a,5,6,11b-tetrahydro-3H-[1]benzoxepino[4,5-b][1,4]thiazin-10-yl)-5-chloro-3-methyl-2-pyridinecarboxamide] | 3.49 | 7.13 | 8.22 | – | – |
| COc1cnc(C(=O)Nc2ccc3c(c2)[C@@]2(C)N=C(N)C(C)(C)S(=O)(=O)[C@]2(F)CCO3)cn1 [Example 67, N-((4aR,11bR)-2-amino-4a-fluoro-3,3,11b-trimethyl-4,4-dioxido-4a,5,6,11b-tetrahydro-3H-[1]benzoxepino[4,5-b][1,4]thiazin-10-yl)-5-methoxy-2-pyrazinecarboxamide] | 2.54 | 6.94 | 7.66 | < 2.92 | – |
| COc1ccc(C(=O)Nc2ccc3c(c2)[C@@]2(C)N=C(N)C(C)(C)S(=O)(=O)[C@@H]2C[C@H](C)O3)nc1 [Example 72, N-((4aR,6S,11bR)-2-amino-3,3,6,11b-tetramethyl-4,4-dioxido-4a,5,6,11b-tetrahydro-3H-[1]benzoxepino[4,5-b][1,4]thiazin-10-yl)-5-methoxy-2-pyridinecarboxamide] | 2.86 | 8.30 | 7.96 | < 2.92 | – |
| C[C@H]1C[C@@H]2[C@](C)(N=C(N)C(C)(C)S2(=O)=O)c2cc(NC(=O)c3cnc(OCC(F)(F)F)cn3)ccc2O1 [Example 74, N-((4aR,6S,11bR)-2-amino-3,3,6,11b-tetramethyl-4,4-dioxido-4a,5,6,11b-tetrahydro-3H-[1]benzoxepino[4,5-b][1,4]thiazin-10-yl)-5-(2,2,2-trifluoroethoxy)-2-pyrazinecarboxamide] | 3.06 | 8.15 | 8.52 | – | – |

Results, then the compound that gave them:

| pIC50 (Cathepsin D (Cat D); read-out: CatD IC50) | pIC50 ([1]; Homo sapiens, HEK293) | pIC50 [2] | pIC50 (Cathepsin D (Cat D); [3]) | pIC50 [1] | Compound |
| --- | --- | --- | --- | --- | --- |
| 3.40 | 7.89 | 7.09 | – | – | Cc1c(C(=O)Nc2ccc3c(c2)[C@@]2(C)N=C(N)C(C)(C)S(=O)(=O)[C@@H]2CCC3)nc2ccc(Cl)cn12 [Example 49, N-((4aR,11bR)-2-amino-3,3,11b-trimethyl-4,4-dioxido-3,4a,5,6,7,11b-hexahydrobenzo[3,4]cyclohepta[1,2-b][1,4]thiazin-10-yl)-6-chloro-3-methylimidazo[1,2-a]pyridine-2-carboxamide] |
| 3.92 | 9.70 | 9.15 | – | – | CC#CCOc1cnc(C(=O)Nc2ccc3c(c2)[C@@]2(C)N=C(N)C(C)(C)S(=O)(=O)[C@@H]2CCC3)cn1 [Example 50, N-((4aR,11bR)-2-amino-3,3,11b-trimethyl-4,4-dioxido-3,4a,5,6,7,11b-hexahydrobenzo[3,4]cyclohepta[1,2-b][1,4]thiazin-10-yl)-5-(2-butyn-1-yloxy)-2-pyrazinecarboxamide] |
| 3.34 | 9.40 | 9.00 | – | – | CC#CCOc1cnc(C(=O)Nc2ccc3c(c2)[C@@]2(C)N=C(N)C(C)(C)S(=O)(=O)[C@@H]2C[C@H](C)O3)cn1 [Example 51, N-((4aR,6S,11bR)-2-amino-3,3,6,11b-tetramethyl-4,4-dioxido-4a,5,6,11b-tetrahydro-3H-[1]benzoxepino[4,5-b][1,4]thiazin-10-yl)-5-(2-butyn-1-yloxy)-2-pyrazinecarboxamide] |
| 3.76 | 7.66 | 7.85 | – | – | COc1cnc2c(Nc3ccc4c(c3)[C@@]3(C)N=C(N)C(C)(C)S(=O)(=O)[C@@H]3C[C@H](C)O4)ncc(F)c2c1 [Example 52, (4aR,6S,11bR)-N^~10^~-(5-fluoro-3-methoxy-1,7-naphthyridin-8-yl)-3,3,6,11b-tetramethyl-4a,5,6,11b-tetrahydro-3H-[1]benzoxepino[4,5-b][1,4]thiazine-2,10-diamine 4,4-dioxide] |
| 3.01 | 7.96 | 7.49 | < 3.10 | – | COc1cnc2c(Nc3ccc4c(c3)[C@@]3(C)N=C(N)C(C)(C)S(=O)(=O)[C@@H]3C[C@H](C)O4)nccc2n1 [Example 53, (4aR,6S,11bR)-N^~10^~-(2-methoxypyrido[3,4-b]pyrazin-5-yl)-3,3,6,11b-tetramethyl-4a,5,6,11b-tetrahydro-3H-[1]benzoxepino[4,5-b][1,4]thiazine-2,10-diamine 4,4-dioxide] |
| < 3.40 | 7.24 | 7.30 | – | – | Cc1cc(Cl)cnc1C(=O)Nc1cnc2c(c1)[C@@]1(C)N=C(N)C3(CCC3)S(=O)(=O)[C@@H]1CCO2 [Example 59, N-((4a′R,11b′R)-2′-amino-11b′-methyl-4′,4′-dioxido-4a′,5′,6′,11b′-tetrahydrospiro[cyclobutane-1,3′-pyrido[3′,2′:6,7]oxepino[4,5-b][1,4]thiazin]-10′-yl)-5-chloro-3-methyl-2-pyridinecarboxamide] |
| < 3.40 | 6.87 | 7.43 | – | – | COc1cnc2c(Nc3cnc4c(c3)[C@@]3(C)N=C(N)C5(CCC5)S(=O)(=O)[C@@H]3CCO4)nccc2n1 [Example 60] |
| < 3.40 | – | 7.23 | – | 6.74 | COc1cnc(C(=O)Nc2cnc3c(c2)[C@@]2(C)N=C(N)C4(CCC4)S(=O)(=O)[C@@H]2CCO3)c(C)c1 [Example 64, N-((4a′R,11b′R)-2′-amino-1113′-methyl-4′,4′-dioxido-4a′,5′,6′,11b′-tetrahydrospiro[cyclobutane-1,3′-pyrido[3′,2′:6,7]oxepino[4,5-b][1,4]thiazin]-10′-yl)-5-methoxy-3-methyl-2-pyridinecarboxamide] |
| 3.57 | 7.05 | 8.10 | – | – | CC1(C)C(N)=N[C@]2(C)c3cc(NC(=O)c4ccc(Cl)cn4)ccc3OCC[C@@]2(F)S1(=O)=O [Example 66, N-((4aR,11bR)-2-amino-4a-fluoro-3,3,11b-trimethyl-4,4-dioxido-4a,5,6,11b-tetrahydro-3H-[1]benzoxepino[4,5-b][1,4]thiazin-10-yl)-5-chloro-2-pyridinecarboxamide] |
| 2.86 | 8.40 | 7.96 | < 2.92 | – | C[C@H]1C[C@@H]2[C@](C)(N=C(N)C(C)(C)S2(=O)=O)c2cc(NC(=O)c3ncc(C(F)(F)F)cc3Cl)ccc2O1 [Example 73, N-((4aR,6S,11bR)-2-amino-3,3,6,11b-tetramethyl-4,4-dioxido-4a,5,6,11b-tetrahydro-3H-[1]benzoxepino[4,5-b][1,4]thiazin-10-yl)-3-chloro-5-(trifluoromethyl)-2-pyridinecarboxamide] |
| 3.66 | 7.21 | 8.40 | – | – | C[C@H]1C[C@@H]2[C@](C)(N=C(N)C(C)(C)S2(=O)=O)c2cc(NC(=O)c3cnc(Cl)cn3)ccc2O1 [Example 75, N-((4aR,6S,11bR)-2-amino-3,3,6,11b-tetramethyl-4,4-dioxido-4a,5,6,11b-tetrahydro-3H-[1]benzoxepino[4,5-b][1,4]thiazin-10-yl)-5-chloro-2-pyrazinecarboxamide] |
